This note sets out measurements from paper PMC10646256, “Scutellarin Rescued Mitochondrial Damage through Ameliorating Mitochondrial Glucose Oxidation via the Pdk‐Pdc Axis” (Advanced Science, 2023).

The structures appear in SMILES notation.

In this experiment the target is pyruvate dehydrogenase kinase 2 (PDK2) (Homo sapiens, UniProt Q15119). As to the kind of experiment: mobility shift kinase assay with purified GST-PDK2; supported by DARTS, CETSA, co-IP-MS and LiP-MS. The class given is biochemical.

As for `O=C(O)[C@H]1O[C@@H](Oc2cc3oc(-c4ccc(O)cc4)cc(=O)c3c(O)c2O)[C@H](O)[C@@H](O)[C@@H]1O` [SG, Scutellarin], the “mobility shift kinase assay with purified GST-PDK2; supported by DARTS, CETSA, c” value is on record as “SG had significantly higher inhibitory activity against PDK2 than DCA at multiple concentrations”.
